Measured values reported in patent US4338320A, “Esters of 6'-hydroxycinchonine, and a method of treating arrythmia with them” (The Board of Regents of the University of Nebraska, priority 1978, dated 1982).
“Also recorded” adds a separate entry of the source. Read-outs that look alike come from different tables or passages of the source.

How the values were obtained:
Format in all cases: in vivo
[1] = test system: mice; experiment: Aconitine-induced arrhythmia in mice
Text: Aconitine was used to induce arrhythmia and a saline solution served as the control for a third group.
A dosage in the same range as that previously set forth for cupreidine was utilized with mice for the compounds 6-benzylcinchonine and 6'-allylcinchonine. Aconitine was used to induce arrhythmia and a saline solution was used with the control group.

[2] = test system: mice; experiment: Antiarrhythmic effective dose in mice (dose probit curve); settings: for ED50: Mus musculus
Method: (§1) Mice were treated at varying dosage levels for both quinidine and cupreidine. A dose probit curve was generated for the effective dose and lethal dose of each compound. The respective ED50 and LD50 values were derived from those curves using techniques well known to those skilled in the art.

[3] = Lethal dose in mice (dose probit curve); settings: mouse, in vivo; mice; from dose probit curve
Method: as §1

[4] = test system: mice; experiment: Lethal dose in mice (dose probit curve); settings: result in words
Method: as §1

[5] = Table III, dosage in the same range as for cupreidine, saline control 160. ± 5
[6] = Table III, dosage in the same range as for cupreidine, saline control 186. ± 6
[7] = Table II, intraperitoneal, cupreidine about 20.6 to about 26.8 mg/kg, quinidine 19.5-25.8 mg/kg, saline control 193. ± 11

Compound | Onset of Arrhythmia (time in seconds) [1, 5] [seconds] | Onset of Ventricular Tachycardia (time in seconds) [1, 6] [seconds] | Onset of Arrhythmia (time in seconds) ([1]; Table II, intraperitoneal, cupreidine about 20.6 to about 26.8 mg/kg, quinidine 19.5-25.8 mg/kg, saline control 153. ± 5) [seconds] | Onset of Ventricular Tachycardia (time in seconds) [1, 7] [seconds] | ED50 [2] [mg/kg] | effectiveness as an antiarrhythmic agent, relative to quinidine ([2]; result in words) | LD50 [3] [mg/kg] | toxicity relative to quinidine [4] | ED50 ([2]; mice, from dose probit curve, read-out: ED50) [mg/kg]
C=CCOc1ccc2nccc([C@H](O)[C@H]3C[C@@H]4CCN3C[C@@H]4C=C)c2c1 [6'-Allylcinchonine, 6'-Allyloxycinchonine] | 215. ± 9 | 261. ± 11 |  |  |  |  |  |  | 
C=C[C@H]1CN2CC[C@H]1C[C@@H]2[C@@H](O)c1ccnc2ccc(OCc3ccccc3)cc12 [6-Benzylcinchonine, 6'-Benzyloxycinchonine] | 195. ± 8 | 217. ± 6 |  |  |  |  |  |  | 
C=CC1CN2CCC1CC2C(O)c1ccnc2ccc(O)cc12 (stereo not shown) [Cupreidine, 6'-hydroxycinchonine] |  |  | 198. ± 8 | 250. ± 22 | 23.5 | equal or superior to quinidine; also recorded: comparable to that of quinidine | 304 | greatly reduced toxicity | 
C=C[C@H]1C[N@@]2CC[C@H]1C[C@@H]2[C@@H](O)c1ccnc2ccc(OC)cc12 [Quinidine, reference compound] |  |  |  | 294. ± 44 |  |  | 202 |  | 22.4
